# Source: patent US20100210668A1, “COMPOSITION AND METHOD FOR TREATMENT OR PREVENTION OF BENIGN PROSTATIC HYPERPLASIA AND LOWER URINARY TRACT SYMPTOMS” (DONG-A PHARM. CO., LTD., priority 2007, published 2010)
# Where two headings read alike, the source gives them in different places.
# How the values were obtained:
# PDE 5 = PDE 5 (Homo sapiens, UniProt O76074); assay: PDE 5 inhibition; assay type: biochemical
# [1] = Safety Test 2: pharmacokinetic parameters; assay type: in vivo; details: male, human, plasma
# Experimental: (§1) The safety evaluation was performed by observing vital signs (diastolic blood pressure, pulse rate, body temperature), clinical laboratory testing, electrocardiogram, adverse reactions such as subjective symptom and objective symptom. In addition, the effect of drug-drug interaction on pharmacokinetics of the pyrazolopyrimidinone was observed.
# [2] = test system: smooth muscle of rat prostate; assay: Relaxation of contracted rat prostatic tissue in organ bath, formula (I) and Silodosin; assay type: cell-based, Sprague-Dawley rat
# Experimental: Male Sprague-Dawley rat with 300-400 g of body weight was sacrificed and the prostate was extracted and transferred to Krebs-Henseleit buffer kept cold. The dorsolateral lobes of prostatic tissue were transected to separate prostatic tissue gland with size of 2×10 mm (4 tissues per a rat). The separated tissues were transferred to organ bath where 95% O2, and 5% CO2 were emitted and Krebs-Henseleit buffer (37° C.) was contained, both ends of the tissue gland were fixed to the bath floor and force transducer connected to polygraph(Grass Instruments) respectively.
# Each tissue was stabilized for 1 hour, and then treated by 10^−5M carbachol to induce the contraction of prostatic tissue.
# In Table 3, data were obtained by using four (4) tissue glands were used for each concentration of the drug, and the numerical value is mean ± standard error of the percentage of contracting degree (inverse proportion to relaxation degree).
# [3] = Physicochemical properties (pKa, solubility)
# [4] = test system: smooth muscle of rat prostate; assay: Relaxation of phenylephrine-contracted rat prostatic tissue in organ bath, formula (I) and Tamsulosin; assay type: cell-based, Sprague-Dawley rat
# Experimental: Male Sprague-Dawley rat with 300-400 g of body weight was sacrificed and the prostate was extracted and transferred to Krebs-Henseleit buffer kept cold. The dorsolateral lobes of prostatic tissue were transected to separate prostatic tissue gland with size of 2×10 mm (4 tissues per a rat). The separated tissues were transferred to organ bath where 95% O2, and 5% CO2 were emitted and Krebs-Henseleit buffer (37° C.) was contained, both ends of the tissue gland were fixed to the bath floor and force transducer connected to polygraph(Grass Instruments) respectively. Each tissue was stabilized under 0.2 standard tension for 1 hour, and then treated by 1 μM of phenylephrine to induce the contraction of prostatic tissue. […] In Table 1, data were obtained by using four (4) tissue glands were used for each concentration of the drug, and the numerical value is mean ±standard error of the percentage of contracting degree (inverse proportion to percentage of relaxation degree).
# [5] = Safety Test 1: pharmacokinetics of the pyrazolopyrimidinone; assay type: in vivo; details: male, human, plasma
# Experimental: as §1, with “drug” for “drug-drug”
# [6] = test system: smooth muscle of rat bladder; assay: Relaxation of carbachol-contracted rat bladder tissue in organ bath; assay type: cell-based, Sprague-Dawley rat; details: for percentage of relaxation degree: L-NAME or Tamsulosin 10^−4M where combined
# [7] = Pharmacokinetic characteristics in the body; assay type: in vivo
# health men [8] = assay: Safety Test 2: vital signs in supine position, Silodosin combination; assay type: in vivo, human; details: for Diastolic blood pressure mean: the values are: Diastolic blood pressure mean
# Experimental: (§2) The safety evaluation was performed by observing vital signs (diastolic blood pressure, pulse rate, body temperature), clinical laboratory testing, electrocardiogram, adverse reactions such as subjective symptom and objective symptom.
# health men [9] = assay: Safety Test 1: vital signs in supine position, Tamsulosin combination; assay type: in vivo, human; details: for Diastolic blood pressure mean: the values are: Diastolic blood pressure mean
# Experimental: as §2
# patients = details: cited from earlier work
# [10] = Group B: placebo + the pyrazolopyrimidinone
# [11] = Group D: administered with Tamsulosin
smiles,measurement,setting,value
"CCCOc1ccc(S(=O)(=O)NCCC2CCCN2C)cc1-c1nc2c(CCC)nn(C)c2c(=O)[nH]1 (stereo not drawn) [Compound of formula (I), 5-[2-propyloxy-5-(1-methyl-2-pyrolidinylethylamidosulphonyl)phenyl]-1-methyl-propyl-1,6-dihydro-7H-pyrazolo (4,3-d)pyrimidin-7-one]",inhibition of PDE 5,PDE 5,inhibits PDE 5 strongly
same,AUC(0-inf),"[1]; Group A: placebo + the pyrazolopyrimidinone, read-out: AUCinf Ud",4820 ± 1320 ng·h/mL
same,Cmax,"[1]; Group A: placebo + the pyrazolopyrimidinone, read-out: Cmax Ud",627 ± 158 ng/mL
same,Tmax,"[1]; Group A: placebo + the pyrazolopyrimidinone, read-out: Tmax (h) Ud",1.5 h
same,AUC(0-inf),"[1]; Group C: Silodosin + the pyrazolopyrimidinone, read-out: AUCinf Ud",4940 ± 1260 ng·h/mL
same,Cmax,"[1]; Group C: Silodosin + the pyrazolopyrimidinone, read-out: Cmax Ud",660 ± 196 ng/mL
same,Tmax,"[1]; Group C: Silodosin + the pyrazolopyrimidinone, read-out: Tmax (h) Ud",1.3 h
same,Contraction degree (%),"[2]; Compound of formula (I) 3 μM, Silodosin 0 nM",92.6 ± 2.2%
same,Contraction degree (%),"[2]; Compound of formula (I) 10 μM, Silodosin 0 nM",77.1 ± 2.5%
same,Contraction degree (%),"[2]; Compound of formula (I) 30 μM, Silodosin 0 nM",62.2 ± 3.1%
same,pKa1,[3],about 6.5
same,pKa2,[3],about 12.5
same,solubility,[3],improved solubility
same,"solubility to acetic acid, methanol or chloroform","[3]; acetic acid, methanol or chloroform",high solubility
same,solubility to water,[3]; water,low solubility
same,Contraction degree (%),"[4]; Compound of formula (I) 3 μM, Tamsulosin 0 nM, 1 μM phenylephrine",92.6 ± 2.2%
same,Contraction degree (%),"[4]; Compound of formula (I) 10 μM, Tamsulosin 0 nM",77.1 ± 2.5%
same,Contraction degree (%),"[4]; Compound of formula (I) 30 μM, Tamsulosin 0 nM",62.2 ± 3.1%
same,AUC(0-inf),[5]; [10],4730 ± 1260 ng·h/mL
same,Cmax,[5]; [10],617 ± 169 ng/mL
same,Tmax,[5]; [10],1.5 h
same,half-life,[5]; [10],9.7 ± 1.7 h
same,AUC(0-inf),[5]; [11],4910 ± 1260 ng·h/mL
same,Cmax,[5]; [11],624 ± 200 ng/mL
same,Tmax,[5]; [11],1.1 h
same,half-life,[5]; [11],9.9 ± 2.3 h
same,percentage of relaxation degree,[6]; Compound of formula (I) 10^−4M,17.4 ± 3.7%
same,percentage of relaxation degree,"[6]; Compound of formula (I) 10^−4M, listed as pyrazolopyrimidinone of formula (I)",about 17.4%
same,percentage of relaxation degree,[6]; Compound of formula (I) 10^−5M,7.2 ± 1.6%
same,percentage of relaxation degree,[6]; Compound of formula (I) 10^−6M,2.0 ± 1.1%
same,percentage of relaxation degree,[6]; Compound of formula (I) 10^−7M,0.0 ± 0.0%
same,percentage of relaxation degree,"[6]; Compound of formula (I) 10^−8M, 10^−5M carbachol",0.0 ± 0.0%
same,concentration at which the relaxation effect began to be represented,[6]; administered alone,10^−6 M
same,half life in the body compared with the sildenafil-type citrate and vardenafil-type hydrochloride named,[7]; in the body,three times longer half life
same,absorption,[7]; in vivo,rapid absorption
same,bioavailability,[7]; in vivo,high bioavailability
same,distribution volume in the body,[7]; in vivo,high distribution volume
same,Pulse rate mean,health men [8],61.4
same,Diastolic blood pressure mean,health men [8],62.2 mmHg
same,Pulse rate mean,health men [9],60.2
same,Diastolic blood pressure mean,health men [9],61.6 mmHg
"C[C@H](Cc1cc2c(c(C(N)=O)c1)N(CCCO)CC2)NCCOc1ccccc1OCC(F)(F)F [Silodosin, reference compound]",AUC(0-inf),"[1]; AUCinf Silodosin, Group B: placebo + Silodosin",110 ± 17.6 ng·h/mL
same,AUC(0-inf),"[1]; AUCinf Silodosin, Group C: Silodosin + the pyrazolopyrimidinone",132 ± 25.2 ng·h/mL
same,Cmax,"[1]; Cmax Silodosin, Group B: placebo + Silodosin",31.1 ± 7.2 ng/mL
same,Cmax,"[1]; Cmax Silodosin, Group C: Silodosin + the pyrazolopyrimidinone",35.2 ± 7.8 ng/mL
same,Tmax,"[1]; Tmax (h) Silodosin, Group B: placebo + Silodosin",1.4 h
same,Tmax,"[1]; Tmax (h) Silodosin, Group C: Silodosin + the pyrazolopyrimidinone",1.7 h
same,Contraction degree (%),"[2]; Compound of formula (I) 0 μM, Silodosin 0.1 nM",90.8 ± 1.4%
same,Contraction degree (%),"[2]; Compound of formula (I) 0 μM, Silodosin 1 nM",82.0 ± 1.7%
same,Contraction degree (%),"[2]; Compound of formula (I) 0 μM, Silodosin 10 nM",46.9 ± 1.6%
same,Pulse rate mean,health men [8],64.2
same,Diastolic blood pressure mean,health men [8],62.3 mmHg
"CCOc1ccccc1OCCN[C@H](C)Cc1ccc(OC)c(S(N)(=O)=O)c1 [Tamsulosin, (R)-5-(2-(2-(2-ethoxyphenoxy)ethylamino)propyl)-2-methoxy benzensulfonamide, reference compound]",Contraction degree (%),"[4]; Compound of formula (I) 0 μM, Tamsulosin 0.25 nM",90.8 ± 1.4%
same,Contraction degree (%),"[4]; Compound of formula (I) 0 μM, Tamsulosin 1 nM",78.8 ± 2.0%
same,Contraction degree (%),"[4]; Compound of formula (I) 0 μM, Tamsulosin 4 nM",43.6 ± 4.2%
same,side effect in combination of PDE 5 inhibitors,patients; administered in combination of PDE 5 inhibitors,orthostatic hypotension
same,Pulse rate mean,health men [9],57.7
same,Diastolic blood pressure mean,health men [9],63 mmHg
COc1cc2nc(N3CCN(C(=O)C4CCCO4)CC3)nc(N)c2cc1OC (stereo not drawn) [Terazocin],side effect in combination of PDE 5 inhibitors,"patients; human, in vivo",orthostatic hypotension
CCCc1nc(C)c2c(=O)[nH]c(-c3cc(S(=O)(=O)N4CCN(CC)CC4)ccc3OCC)nn12 [Vardenafil],blood pressure effect in combination of α-adrenergic receptor antagonist,patients; combination with α-adrenergic receptor antagonist,some patients shows low blood pressure
